# Literature values as cited in US20250170053A1, “LONG-LASTING RESORBABLE SUBCUTANEOUS IMPLANT WITH PROLONGED RELEASE OF PRE-CONCENTRATED PHARMACOLOGICALLY ACTIVE SUBSTANCE IN A POLYMER FOR THE ADJUVANT TREATMENT OF EPILEPSY, CHRONIC PAIN AND ANXIETY, AND METHOD” (priority 2022, published 2025).
# Experiments:
# [1] = test system: patients with treatment-resistant epilepsy; settings: 2 to 50 mg/kg/day oral CBD, twelve weeks
# rodents = settings: systemic administration
# [2] = test system: healthy volunteers and patients with anxiety disorders; settings: inverted U-shaped dose-response curve in humans
structure (smiles),measurement,setting,value
"C=C(C)[C@@H]1CCC(C)=C[C@H]1c1c(O)cc(CCCCC)cc1O [CBD, cannabidiol]",individuals who discontinued treatment due to some adverse event,[1],3%
same,safety and tolerability of the drug,[1],acceptable
same,average reduction in seizure frequency,"[1]; adjunctive therapy, patients aged one to thirty years",36.5%
same,effect in the elevated plus-maze test,rodents,antianxiety effects
same,anxiolytic activity,[2],significant anxiolytic activity
